In assay [1] the target is human recombinant serotonin (5-Hydroxytryptamine) 5-HT7 receptor (Homo sapiens, UniProt P34969). Nature of the assay: Serotonin 5-HT7 radioligand binding assay ([3H]LSD). The note with it: compound at 0.1 μM; 5.5 nM [3H]LSD; CHO cells; read-out: Percent Inhibition of ligand binding, Serotonin (0.1 μM) 5-HT7. The procedure: Compounds of invention were incubated with 5.5 nM [^3H] Lysergic acid diethylamide (LSD) for 2 h at 25° C. […] Receptor proteins were filtered and washed, the filters were then counted to determine [^3H]LSD specifically bound. Compounds were screened at 1 μM or lower, using 1% DMSO as vehicle. Biochemical assay results are presented as the percent inhibition of specific binding in Table 4.

Assay [2] concerns the target T1, human recombinant adrenergic α2B receptor (Homo sapiens, UniProt P18089).
T1 construct: expressed in transfected cells; host or cells: Chinese hamster ovary (CHO-K1) cells
T1 sequence (P18089 1-450): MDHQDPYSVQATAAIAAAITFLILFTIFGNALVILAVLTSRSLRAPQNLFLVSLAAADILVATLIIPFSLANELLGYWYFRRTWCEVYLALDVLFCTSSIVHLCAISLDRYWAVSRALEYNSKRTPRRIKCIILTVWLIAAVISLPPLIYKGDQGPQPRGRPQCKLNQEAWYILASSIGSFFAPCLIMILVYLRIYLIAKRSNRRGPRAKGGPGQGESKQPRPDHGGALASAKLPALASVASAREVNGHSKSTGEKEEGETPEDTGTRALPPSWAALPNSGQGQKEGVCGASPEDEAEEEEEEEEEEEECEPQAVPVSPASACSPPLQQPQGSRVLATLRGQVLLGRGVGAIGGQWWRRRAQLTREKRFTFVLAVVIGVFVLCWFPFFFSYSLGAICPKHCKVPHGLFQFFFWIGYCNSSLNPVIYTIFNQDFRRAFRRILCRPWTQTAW
Briefly: Adrenergic α2B radioligand binding assay ([3H]Rauwolscine). Particulars: compound at 0.1 μM; 2.5 nM [3H]Rauwolscine; CHO-K1 cells; read-out: Percent Inhibition of ligand binding, Adrenergic (0.1 μM) a2B. The procedure: To evaluate in radioligand binding assays the activity of compounds of the invention, human recombinant adrenergic α2B receptor expressed in Chinese hamster ovary (CHO-K1) cells (Uhlen S et al., Eur. J. Pharmacol. 343(1):93, 1998) in a modified Tris-HCl buffer (50 mM Tris-HCl, pH 7.4, 12.5 mM MgCl2, 1 mM EDTA, 0.2% BSA) was used. Compounds of the invention were incubated with 2.5 nM [^3H]Rauwolscine for 60 min at 25° C. Non-specific binding was estimated in the presence of 10 μM Prozosin. Receptor proteins were filtered and washed, the filters were then counted to determine [^3H]Rauwolscine specifically bound.

The target in assay [3] is T2, human recombinant serotonin (5-Hydroxytryptamine) 5-HT5A receptor (Homo sapiens, UniProt P47898).
T2 construct: expressed in transfected cells; host or cells: Chinese hamster ovary (CHO-K1) cells
Briefly: Serotonin 5-HT5A radioligand binding assay ([3H]LSD). The note with it: compound at 0.1 μM; 1.7 nM [3H]LSD; CHO-K1 cells; read-out: Percent Inhibition of ligand binding, Serotonin (0.1 μM) 5-HT5A. The method, then:
Compounds of the invention were incubated with 1.7 nM [^3H]Lysergic acid diethylamide (LSD) for 60 min at 37° C. […] Receptor proteins were filtered and washed, the filters were then counted to determine [^3H]LSD specifically bound. Compounds were screened at 1 μM or lower, using 1% DMSO as vehicle. Compounds of the invention were tested in this biochemical assay and percent inhibition of specific binding was determined. Biochemical assay results are presented as the percent inhibition of specific binding in Table 4.

The target in assay [4] is human recombinant dopamine D2L receptor (Homo sapiens, UniProt P14416). Nature of the assay: Dopamine D2L radioligand binding assay ([3H]Spiperone). Particulars: compound at 1 μM, 0.16 nM [3H]Spiperone, CHO cells, read-out: Percent Inhibition of ligand binding, Dopamine (1μM). In short, it runs like this:
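Test compounds at 1 μM or lower (1% DMSO vehicle) incubated with 0.16 nM [3H]Spiperone for 120 min at 25 °C; nonspecific binding defined with 10 μM haloperidol. Filtration and counting of bound radioligand; values given as percent inhibition of specific binding.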

human recombinant serotonin (5-Hydroxytryptamine) 5-HT7 receptor, sequence (P34969 whole entry): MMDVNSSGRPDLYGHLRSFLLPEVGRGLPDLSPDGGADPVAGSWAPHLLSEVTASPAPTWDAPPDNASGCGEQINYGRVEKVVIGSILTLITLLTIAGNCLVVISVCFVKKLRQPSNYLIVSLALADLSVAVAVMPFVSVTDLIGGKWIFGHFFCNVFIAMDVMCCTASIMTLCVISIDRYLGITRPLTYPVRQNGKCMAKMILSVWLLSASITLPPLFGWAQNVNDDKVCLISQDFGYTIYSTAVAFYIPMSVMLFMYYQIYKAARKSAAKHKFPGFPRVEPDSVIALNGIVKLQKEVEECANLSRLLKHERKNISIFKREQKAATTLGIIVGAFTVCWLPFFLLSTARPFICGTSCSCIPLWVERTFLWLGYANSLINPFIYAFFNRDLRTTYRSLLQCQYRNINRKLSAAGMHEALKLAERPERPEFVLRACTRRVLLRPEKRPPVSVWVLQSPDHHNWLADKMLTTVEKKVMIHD
human recombinant dopamine D2L receptor, sequence (P14416 whole entry): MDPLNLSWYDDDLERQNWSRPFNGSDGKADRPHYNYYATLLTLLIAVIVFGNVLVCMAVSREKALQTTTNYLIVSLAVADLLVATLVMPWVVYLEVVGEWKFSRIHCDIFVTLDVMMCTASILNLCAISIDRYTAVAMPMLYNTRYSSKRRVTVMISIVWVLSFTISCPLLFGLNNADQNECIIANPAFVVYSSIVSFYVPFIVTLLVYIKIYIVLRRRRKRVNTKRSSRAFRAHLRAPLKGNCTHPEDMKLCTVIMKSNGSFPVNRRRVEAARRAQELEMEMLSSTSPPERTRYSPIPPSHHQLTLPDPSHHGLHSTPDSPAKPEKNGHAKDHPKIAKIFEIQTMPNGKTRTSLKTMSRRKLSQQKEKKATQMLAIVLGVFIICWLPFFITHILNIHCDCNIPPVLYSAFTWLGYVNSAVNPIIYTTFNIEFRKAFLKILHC
T2 sequence (P47898 whole entry): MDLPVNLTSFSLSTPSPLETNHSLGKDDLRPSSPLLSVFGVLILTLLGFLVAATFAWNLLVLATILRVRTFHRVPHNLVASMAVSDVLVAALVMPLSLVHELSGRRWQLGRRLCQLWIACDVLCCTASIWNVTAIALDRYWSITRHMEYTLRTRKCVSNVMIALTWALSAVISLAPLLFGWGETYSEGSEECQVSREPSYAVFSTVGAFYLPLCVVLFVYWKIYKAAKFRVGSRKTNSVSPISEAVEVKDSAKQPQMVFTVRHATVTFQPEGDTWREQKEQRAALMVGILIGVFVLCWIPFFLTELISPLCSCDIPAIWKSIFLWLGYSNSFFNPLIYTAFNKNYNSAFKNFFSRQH

For orientation: inhibition means the drop in the measured response relative to a control, in per cent. In the case of `CCCC[C@](O)(Cn1c2c(c3cc(Cl)ccc31)CN(C)CC2)c1ccc(F)cc1` [Compound 1-61, (R)-1-(8-Chloro-2-methyl-3,4-dihydro-1H-pyrido[4,3-b]indol-5(2H)-yl)-2-(4-fluorophenyl)hexan-2-ol], the results for the inhibition at 0.1 µM in assay [1], in assay [2] and in assay [3] were -12%, 2% and 5%, respectively. For the same compound, the inhibition at 1 µM in assay [4] is 14%.

With `CCCC[C@@](O)(Cn1c2c(c3cc(Cl)ccc31)CN(C)CC2)c1ccc(F)cc1` [Compound 1-67, (S)-1-(8-chloro-2-methyl-3,4-dihydro-1H-pyrido[4,3-b]indol-5(2H)-yl)-2-(4-fluorophenyl)hexan-2-ol], the inhibition at 0.1 µM in assay [1] was -8%; in assay [2] it was -3%; in assay [3] it was -11%. Further, the inhibition at 1 µM in assay [4] worked out at 20%.

Regarding `Cc1ccc2c(c1)c1c(n2CCc2ccc(C)nc2)CCN(CC(F)(F)F)C1` [Compound 1-65, 8-methyl-5-(2-(6-methylpyridin-3-yl)ethyl)-2-(2,2,2-trifluoroethyl)-2,3,4,5-tetrahydro-1H-pyrido[4,3-b]indole], the inhibition at 0.1 µM in assay [1] is -15%; in assay [2] it was -9%; in assay [3], -12%. Besides, in assay [4], the inhibition at 1 µM was 12%.

For the origin of these results see patent US9255094B2, “Pyrido[4,3-B]indoles and methods of use” (Medivation Technologies, Inc., priority 2009, dated 2016).
